Experimental data taken from patent US8148392B2, “2-indolyl imidazo [4,5-d] phenanthroline derivatives and their use in the treatment of cancer” (Lorus Therapeutics Inc., priority 2005, dated 2012).
Read-outs that look alike come from different tables or passages of the source.

Key:
KLF4 [1] = assay: KLF4 gene expression by RT-PCR, MDA-MB-231; assay type: cell-based, human; settings: MDA-MB-231, relative to vehicle control as 1
Text: (§1) Gene expression levels of KLF4, induced by compounds of Formula I, were also examined on various cancer cell types by RT-PCR. Fold changes in KLF4 in compound-treated cells were expressed relative to KLF4 expression in vehicle control-treated cells of respective cell type as “1”. […] Additionally, xenografts of MDA-MB-435 implanted into mammary fat pads of female SCID mice have shown immunohistochemical staining consistent with melanocytic origin (Ellison G, Klinowska T, Westwood R F, Docter E, French T, Fox J C. (2002) Mol Pathol. 55(5): 294-299). The breast cancer cell line MDA-MB-435 may be expected to function differently than the other breast cancer cell lines.

[2] = tested on: MDA-MB-231 breast cancer cells; assay: XTT cell proliferation assay, MDA-MB-231; assay type: cell-based, human; settings: read-out: IC50 (cell growth inhibition)
Experimental: (§2) Cell growth inhibition IC50 (μM) by compounds of Formula I was tested on various cancer cell types by XTT cell proliferation assay. The growth inhibitory effects of the compounds of Formula I as shown below for the melanoma cell line SK-MEL-2 were reproducible by Lorus Therapeutics Inc.

KLF4 [3] = assay: KLF4 gene expression by RT-PCR, H-460; assay type: cell-based, human; settings: H-460, relative to vehicle control as 1
Text: as §1
Expressions of KLF2, 4 and 6 genes in H-460 cells, treated with vehicle control or 2.5 μM compound 3 or compound 7, were measured by RT-PCR. Gene expression was presented relative to respective gene expression in vehicle control-treated group as “1”.

SK-MEL-2 melanoma cells = assay: XTT cell proliferation assay, SK-MEL-2; assay type: cell-based, human; settings: read-out: IC50 (cell growth inhibition)
Experimental: as §2

KLF4 [4] = assay: KLF4 gene expression by RT-PCR, PC-3; assay type: cell-based, human; settings: PC-3, relative to vehicle control as 1
Text: as §1

KLF4 [5] = assay: KLF4 gene expression by RT-PCR, MDA-MB-435; assay type: cell-based, human; settings: MDA-MB-435, relative to vehicle control as 1
Text: as §1

KLF4 [6] = assay: KLF4 gene expression by RT-PCR, SK-MEL-2; assay type: cell-based, human; settings: SK-MEL-2, relative to vehicle control as 1
Text: as §1

KLF4 [7] = assay: KLF4 gene expression by RT-PCR, CCRF-CEM; assay type: cell-based, human; settings: relative to vehicle control as 1
Text: as §1

[8] = tested on: human colon carcinoma HT-29 cells; assay: XTT cell proliferation assay, HT-29; assay type: cell-based
Experimental: The ability of compounds of Formula I to inhibit the proliferation of human colon carcinoma HT-29 cells was tested as follows. HT-29 colon carcinoma cells used in this example and subsequent examples were maintained as a monolayer in a growth medium; McCoy's 5A modified medium (Sigma, St. Louis, Mo.), supplemented with 2 mM L-glutamine (Gibco, Grand Island, N.Y.), 10% fetal bovine serum (FBS) (Multicell, WISENT Inc. St-Bruno, QC), antibiotic-antimycotic (Multicell), at 37° C. in a 5% CO2-humidified incubator. Cells were transferred onto 150 mm tissue culture plates and grown until sub-confluency (70-80%) prior to their use. The in vitro antiproliferative activity of compounds was evaluated by incubating the cells with varying concentrations of the compounds as shown in Table 1 for 6-7 days. The efficacy of these compounds in this cell proliferation assay was measured based in the ability of live cells to reduce the tetrazolium salt XTT to orange colored compounds of formazan (XTT cell proliferation kit II, Roche Applied Science, Montreal, QC).
The ability of compounds of Formula I to inhibit the proliferation of human colon carcinoma HT-29 cells was tested as described above in Example 13.
as §2

KLF4 [9] = assay: KLF4 gene expression by RT-PCR, HCT-116; assay type: cell-based, human; settings: HCT-116, relative to vehicle control as 1
Text: as §1

H-460 lung cancer cells = assay: XTT cell proliferation assay, H-460; assay type: cell-based, human; settings: read-out: IC50 (cell growth inhibition)
Experimental: as §2

CCRF-CEM leukemia cells = assay: XTT cell proliferation assay, CCRF-CEM; assay type: cell-based, human; settings: read-out: IC50 (cell growth inhibition)
Experimental: as §2

[10] = tested on: DU-145 prostate cancer cells; assay: XTT cell proliferation assay, DU-145; assay type: cell-based, human; settings: read-out: IC50 (cell growth inhibition)
Experimental: as §2

KLF4 [11] = assay: KLF4 gene expression by RT-PCR, MOLT-4; assay type: cell-based, human; settings: MOLT-4, relative to vehicle control as 1
Text: as §1

[12] = tested on: PC-3 prostate cancer cells; assay: XTT cell proliferation assay, PC-3; assay type: cell-based, human; settings: read-out: IC50 (cell growth inhibition)
Experimental: as §2

[13] = tested on: MDA-MB-435 breast cancer cells; assay: XTT cell proliferation assay, MDA-MB-435; assay type: cell-based, human; settings: read-out: IC50 (cell growth inhibition)
Experimental: as §2

MOLT-4 leukemia cells = assay: XTT cell proliferation assay, MOLT-4; assay type: cell-based, human; settings: read-out: IC50 (cell growth inhibition)
Experimental: as §2

KLF4 [14] = assay: KLF4 gene expression by RT-PCR, HT-29; assay type: cell-based, human; settings: HT-29, relative to vehicle control as 1
Experimental: To determine whether compounds of Formula I can chelate zinc in cells, the effect of compound 3 on the expression level of a zinc-regulated gene, metallothionein 1A (MT1A), in human colon carcinoma HT-29 cells, was determined. HT-29 cells, 1×10^6 cells in 10 mL volume of the growth medium were seeded in 100 mm dishes and incubated overnight at 37° C. The medium was removed and replaced with the growth medium containing 35 μM ZnCl2, 1 μM or 4 μM TPEN (NNNN-tetrakis(2-pyridyl-methyl)ethylenediamine), or 1 μM or 4 μM compound 3, or 0.1% DMSO vehicle control. After incubation for 16 hours, the cells were detached by trypsinization, collected by centrifugation and washed once with PBS. Total RNA was extracted by using TRIZOL (Invitrogen, Life Technologies, Carlsbad, Calif.), following manufacturer's instruction, and the level of MT1A mRNA was measured by real time PCR using the comparative CT method as follows. First strand cDNA was synthesized from 200 ng total RNA in Biometra Tpersonal Thermal Cycler (Abgene, UK), using pd(N)6 random hexamer (Amersham Biosciences, Piscataway, N.J.) and SuperScript™ II Reverse Transcriptase kit (Invitrogen) by following manufacturer's protocol. Real-time PCR was performed in ABI Prism 7000 Sequence Detection System (Applied Biosystems Inc., ABI, Foster City, Calif.), using 5 μL of cDNA synthesized by above-mentioned procedure and respective TaqMan® Gene Expression Assays (ABI) by following ABI TaqMan® Universal PCR master mix protocol.
The ability of compounds of Formula I to modulate the mRNA level of a transition metal-regulated tumour suppressor gene was determined in vitro as follows. Compound 3 was tested to determine its ability to increase the expression of zinc-regulated tumour suppressor KLF4 mRNA in colon carcinoma HT-29 cells. […] HT-29 cells were incubated for 16 hours with DMSO as a vehicle control, 35 μM ZnCl2, 1 μM or 4 μM of compound 3, or 1 μM or 4 μM TPEN for 16 hours and mRNA was extracted from the cells as described in Example 19. The expression of KLF4 mRNA was analyzed by real-time polymerase chain reaction using the comparative CT method also as described in Example 19. Compound 3 induced the expression of KLF4 mRNA (approximately 8-fold) in HT-29 cells compared with HT-29 cells treated with vehicle alone (See FIG. 8).
as §1
The change in gene expression of KLF4 upon zinc depletion following compound 3 treatment was determined by RT-PCR as follows. HT-29 cells were treated with 1 μM compound 3 for the indicated time (FIG. 39A) or HT-29 cells were treated with 1 μM compound 3, 35 μM ZnCl2 or compund 3 and ZnCl2 together for 16 hr (FIG. 39B). Total RNA was extracted and gene expression level was determined by RT-PCR.
Fold change in KLF4 gene expression was presented relative to KLF4 expression in non-specific siRNA-transfected cells treated with vehicle control.

KLF4 [15] = assay: KLF4 gene expression by RT-PCR, DU-145; assay type: cell-based, human; settings: DU-145, relative to vehicle control as 1
Text: as §1

[16] = tested on: HCT-116 colon cancer cells; assay: XTT cell proliferation assay, HCT-116; assay type: cell-based, human; settings: read-out: IC50 (cell growth inhibition)
Experimental: as §2

IC50 [2]: 3700 nM
IC50 (SK-MEL-2 melanoma cells): 170 nM
IC50 ([8]; HT-29, XTT, as Example 13, Table 7): 0.2 µg/mL
IC50 ([8]; HT-29 colon, Table 8, read-out: IC50 (cell growth inhibition)): 200 nM
IC50 (H-460 lung cancer cells): 400 nM
IC50 (CCRF-CEM leukemia cells): 300 nM
IC50 [10]: 400 nM
IC50 [12]: 320 nM
IC50 [13]: 500 nM
IC50 (MOLT-4 leukemia cells): 200 nM
IC50 [16]: 300 nM
Structure (SMILES): CC(C)(C)c1ccc2[nH]c(C(C)(C)C)c(-c3nc4c5cccnc5c5ncccc5c4[nH]3)c2c1 [Compound 63]
KLF4 (gene fold increase) (KLF4 [1]): 1.77 fold
KLF4 (gene fold increase) (KLF4 [3]): 1.55 fold
KLF4 (gene fold increase) (KLF4 [4]): 1.34 fold
KLF4 (gene fold increase) (KLF4 [5]): 7.67 fold
KLF4 (gene fold increase) (KLF4 [6]): 5.46 fold
KLF4 (gene fold increase) (KLF4 [7]): 76.37 fold
KLF4 (gene fold increase) (KLF4 [9]): 2.82 fold
KLF4 (gene fold increase) (KLF4 [11]): 223.63 fold
KLF4 (gene fold increase) (KLF4 [14]): 5.98 fold
KLF4 (gene fold increase) (KLF4 [15]): 12.95 fold
